The source of these data is patent publication US20130130986A1, “CANCER TREATMENT WITH RECOMBINANT VECTOR” (TOCAGEN INC., priority 2010, published 2013).

The test system of one experiment is Tu2449. Put plainly: Thymosin combination therapy in Tu2449/B6C3F1 glioma mouse model, survival. The format is in vivo. To be noted: TA1 200 μg/kg IP SID 28 days added to suboptimal Toca511 (E3) and standard BID 5-FC, FIG. 10. Here is the method: Experiments using Thymosin Alpha 1 were performed in conjunction with Toca 511 treatment in the Tu2449/B6C3F1 glioma mouse model (U. Pohle et al. Int J Oncol. 15:829-834 (1999); HM. Smilowitz et al. J. Neurosurg 106:652-659 2007). […] Thymosin Alpha 1 was obtained from Sigma Aldrich cat# T3641 and a stock solution made in sterile water at 400 μg/mL. TA1 (200 μg/kg, […]) was given IP starting on day 7 SID for 28 days.

In another experiment the test system is U-87 cells. The experiment can be described thus: yCD2 versus wild type yCD protein level in infected cells (FIG. 4). In kind it is cell-based, human. To be noted: infected U-87 cells.

No end group written: not given here.

“thymosin alpha 1 (Ac-SDAAVDTSSEITTKDLKEKKEVVEEAEN; listed as Homo sapiens) [Sigma Aldrich cat# T3641]”: the survival rate result with Tu2449 was “increased the survival rate to that of the optimal E5 dosing of Toca 511”.

B1: yCD2: human codon optimized yeast cytosine deaminase with substitutions A23L/V108I/I140L (protein, UniProt Q12178 1-158, looked up, variant A23L V108I I140L)
Cytosine deaminase: MVTGGMASKWDQKGMDIAYEEALLGYKEGGVPIGGCLINNKDGSVLGRGHNMRFQKGSATLHGEISTLENCGRLEGKVYKDTTLYTTLSPCDMCTGAIIMYGIPRCVIGENVNFKSKGEKYLQTRGHEVVVVDDERCKKLMKQFIDERPQDWFEDIGE
For B1, the CD protein level result in the experiment on U-87 cells is on record as “higher levels”.
